Test results published in EP0726261A1, “Herbidical 1,2,4 thiadiazoles” (American Cyanamid Company, priority 1995, dated 1996).

Columns and labels:
Type in all cases: in vivo
Triticum aestivum [1] = experiment: Preemergence herbicidal activity (Example 67); set-up: herbicide rating, TRZAW: scale not given here; details: pre, 800 g/ha
Method in brief: (§1)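 Cups filled with a horticultural substrate (peat, volcanic clay, bark residues, polyamide) mixed 1:3 with loamy sand were sprayed on the soil surface with compound at 800g/ha. Plants were then grown on greenhouse benches and evaluated roughly 1-3 weeks later.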

Hordeum vulgare [2] = experiment: Preemergence herbicidal activity (Example 67); set-up: herbicide rating, HORVW: scale not given here; details: pre, 800 g/ha
Method in brief: as §1

Alopecurus myosuroides [3] = experiment: Preemergence herbicidal activity (Example 67); set-up: herbicide rating, ALOMY: scale not given here; details: pre, 800 g/ha
Method in brief: as §1

Setaria viridis [4] = experiment: Preemergence herbicidal activity (Example 67); set-up: herbicide rating, SETVI: scale not given here; details: pre, 800 g/ha
Method in brief: as §1

Abutilon theophrasti [5] = experiment: Preemergence herbicidal activity (Example 67); details: pre, 800 g/ha
Method in brief: as §1

Amaranthus retroflexus [6] = experiment: Preemergence herbicidal activity (Example 67); details: pre, 800 g/ha
Method in brief: as §1

Chenopodium album [7] = experiment: Preemergence herbicidal activity (Example 67); details: pre, 800 g/ha
Method in brief: as §1

Galium aparine [8] = experiment: Preemergence herbicidal activity (Example 67); details: pre, 800 g/ha
Method in brief: as §1

Helianthus annuus [9] = experiment: Preemergence herbicidal activity (Example 67); details: pre, 800 g/ha
Method in brief: as §1

Ipomoea hederacea [10] = experiment: Preemergence herbicidal activity (Example 67); details: pre, 800 g/ha
Method in brief: as §1

Veronica persica [11] = experiment: Preemergence herbicidal activity (Example 67); details: pre, 800 g/ha
Method in brief: as §1

Zea mays [12] = experiment: Preemergence herbicidal activity (Example 67); details: pre, 800 g/ha
Method in brief: as §1

Abutilon theophrasti [13] = experiment: Postemergence herbicidal activity (Example 67); details: pos, 800 g/ha
Method in brief: (§2)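 Test compound is dissolved in acetone with 0.5% TRITON X-155 and diluted with water. It is then sprayed at 800g/ha (400 L/ha, 3 bar) onto 3-6 week old plants. The plants are kept in the greenhouse and rated after 10-21 days.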

Alopecurus myosuroides [14] = experiment: Postemergence herbicidal activity (Example 67); details: pos, 800 g/ha
Method in brief: as §2

Amaranthus retroflexus [15] = experiment: Postemergence herbicidal activity (Example 67); details: pos, 800 g/ha
Method in brief: as §2

Chenopodium album [16] = experiment: Postemergence herbicidal activity (Example 67); details: pos, 800 g/ha
Method in brief: as §2

Galium aparine [17] = experiment: Postemergence herbicidal activity (Example 67); details: pos, 800 g/ha
Method in brief: as §2

Helianthus annuus [18] = experiment: Postemergence herbicidal activity (Example 67); details: pos, 800 g/ha
Method in brief: as §2

Hordeum vulgare [19] = experiment: Postemergence herbicidal activity (Example 67); details: pos, 800 g/ha
Method in brief: as §2

Ipomoea hederacea [20] = experiment: Postemergence herbicidal activity (Example 67); details: pos, 800 g/ha
Method in brief: as §2

Setaria viridis [21] = experiment: Postemergence herbicidal activity (Example 67); details: pos, 800 g/ha
Method in brief: as §2

Triticum aestivum [22] = experiment: Postemergence herbicidal activity (Example 67); details: pos, 800 g/ha
Method in brief: as §2

Veronica persica [23] = experiment: Postemergence herbicidal activity (Example 67); details: pos, 800 g/ha
Method in brief: as §2

Zea mays [24] = experiment: Postemergence herbicidal activity (Example 67); details: pos, 800 g/ha
Method in brief: as §2

[25] = rated about 1-3 weeks after treatment

COc1ccc(-c2nsc(C(=O)NCc3cccs3)n2)cc1 [Example 36]
herbicide rating, TRZAW (Triticum aestivum [1]; [25]): 0 | herbicide rating, HORVW (Hordeum vulgare [2]; [25]): 0 | herbicide rating, ALOMY (Alopecurus myosuroides [3]; [25]): 0 | herbicide rating, SETVI (Setaria viridis [4]; [25]): 0 | herbicide rating, ABUTH (Abutilon theophrasti [5]; [25]): 0 | herbicide rating, AMARE (Amaranthus retroflexus [6]; [25]): 0 | herbicide rating, CHEAL (Chenopodium album [7]; [25]): 0 | herbicide rating, GALAP (Galium aparine [8]; [25]): 0 | herbicide rating, HELAN (Helianthus annuus [9]; [25]): 0 | herbicide rating, IPOHE (Ipomoea hederacea [10]; [25]): 2 (6-15%) | herbicide rating, VERPE (Veronica persica [11]; [25]): 0 | herbicide rating, ZEAMX (Zea mays [12]; [25]): 3 (16-29%) | herbicide rating, ABUTH (Abutilon theophrasti [13]; rated after 10-21 days): 1 (1-5%) | herbicide rating, ALOMY (Alopecurus myosuroides [14]; rated after 10-21 days): 3 (16-29%) | herbicide rating, AMARE (Amaranthus retroflexus [15]; rated after 10-21 days): 2 (6-15%) | herbicide rating, CHEAL (Chenopodium album [16]; rated after 10-21 days): 3 (16-29%) | herbicide rating, GALAP (Galium aparine [17]; rated after 10-21 days): 2 (6-15%) | herbicide rating, HELAN (Helianthus annuus [18]; rated after 10-21 days): 4 (30-44%) | herbicide rating, HORVW (Hordeum vulgare [19]; rated after 10-21 days): 0 | herbicide rating, IPOHE (Ipomoea hederacea [20]; rated after 10-21 days): 3 (16-29%) | herbicide rating, SETVI (Setaria viridis [21]; rated after 10-21 days): 7 (80-90%) | herbicide rating, TRZAW (Triticum aestivum [22]; rated after 10-21 days): 3 (16-29%) | herbicide rating, VERPE (Veronica persica [23]; rated after 10-21 days): 2 (6-15%) | herbicide rating, ZEAMX (Zea mays [24]; rated after 10-21 days): 0

C[C@H](NC(=O)c1nsc(-c2ccc(F)cc2)n1)c1ccccc1 [Example 40, (S)-5-(4-Fluorophenyl)-[1,2,4]thiadiazole-3-carboxylic acid, 1-(phenylethyl)amide]
TRZ AW rating (Triticum aestivum [1]): 0 | HOR VW rating (Hordeum vulgare [2]): 0 | ALO MY rating (Alopecurus myosuroides [3]): 0 | SET VI rating (Setaria viridis [4]): 4 (30-44%) | ABU TH rating (Abutilon theophrasti [5]): 8 (91-99%) | AMA RE rating (Amaranthus retroflexus [6]): 0 | CHE AL rating (Chenopodium album [7]): 4 (30-44%) | GAL AP rating (Galium aparine [8]): 0 | HEL AN rating (Helianthus annuus [9]): 4 (30-44%) | IPO HE rating (Ipomoea hederacea [10]): 0 | VER PE rating (Veronica persica [11]): 5 (45-64%) | ZEA MX rating (Zea mays [12]): 0 | ABU TH rating (Abutilon theophrasti [13]): 8 (91-99%) | ALO MY rating (Alopecurus myosuroides [14]): 5 (45-64%) | AMA RE rating (Amaranthus retroflexus [15]): 8 (91-99%) | CHE AL rating (Chenopodium album [16]): 8 (91-99%) | GAL AP rating (Galium aparine [17]): 8 (91-99%) | HEL AN rating (Helianthus annuus [18]): 9 (100% effect) | HOR VW rating (Hordeum vulgare [19]): 6 (65-79%) | IPO HE rating (Ipomoea hederacea [20]): 8 (91-99%) | SET VI rating (Setaria viridis [21]): 9 (100% effect) | TRZ AW rating (Triticum aestivum [22]): 4 (30-44%) | VER PE rating (Veronica persica [23]): 8 (91-99%) | ZEA MX rating (Zea mays [24]): 5 (45-64%)

C[C@H](NC(=O)c1nsc(-c2cccc(C(F)(F)F)c2)n1)c1ccccc1 [Example 42]
TRZ AW rating (Triticum aestivum [1]): 0 | HOR VW rating (Hordeum vulgare [2]): 0 | ALO MY rating (Alopecurus myosuroides [3]): 0 | SET VI rating (Setaria viridis [4]): 0 | ABU TH rating (Abutilon theophrasti [5]): 0 | AMA RE rating (Amaranthus retroflexus [6]): 0 | CHE AL rating (Chenopodium album [7]): 5 (45-64%) | GAL AP rating (Galium aparine [8]): 2 (6-15%) | HEL AN rating (Helianthus annuus [9]): 0 | IPO HE rating (Ipomoea hederacea [10]): 0 | VER PE rating (Veronica persica [11]): 2 (6-15%) | ZEA MX rating (Zea mays [12]): 0 | ABU TH rating (Abutilon theophrasti [13]): 0 | ALO MY rating (Alopecurus myosuroides [14]): 1 (1-5%) | AMA RE rating (Amaranthus retroflexus [15]): 0 | CHE AL rating (Chenopodium album [16]): 3 (16-29%) | GAL AP rating (Galium aparine [17]): 0 | HEL AN rating (Helianthus annuus [18]): 3 (16-29%) | HOR VW rating (Hordeum vulgare [19]): 2 (6-15%) | IPO HE rating (Ipomoea hederacea [20]): 2 (6-15%) | SET VI rating (Setaria viridis [21]): 5 (45-64%) | TRZ AW rating (Triticum aestivum [22]): 2 (6-15%) | VER PE rating (Veronica persica [23]): 0 | ZEA MX rating (Zea mays [24]): 0

O=C(NCc1cccs1)c1nc(-c2cccc(F)c2)ns1 [Example 44]
TRZ AW rating (Triticum aestivum [1]): 0 | HOR VW rating (Hordeum vulgare [2]): 0 | ALO MY rating (Alopecurus myosuroides [3]): 4 (30-44%) | SET VI rating (Setaria viridis [4]): 3 (16-29%) | ABU TH rating (Abutilon theophrasti [5]): 0 | AMA RE rating (Amaranthus retroflexus [6]): 0 | CHE AL rating (Chenopodium album [7]): 0 | GAL AP rating (Galium aparine [8]): 0 | HEL AN rating (Helianthus annuus [9]): 0 | IPO HE rating (Ipomoea hederacea [10]): 3 (16-29%) | VER PE rating (Veronica persica [11]): 0 | ZEA MX rating (Zea mays [12]): 0 | ABU TH rating (Abutilon theophrasti [13]): 0 | ALO MY rating (Alopecurus myosuroides [14]): 0 | AMA RE rating (Amaranthus retroflexus [15]): 0 | CHE AL rating (Chenopodium album [16]): 0 | GAL AP rating (Galium aparine [17]): 3 (16-29%) | HEL AN rating (Helianthus annuus [18]): 0 | HOR VW rating (Hordeum vulgare [19]): 3 (16-29%) | IPO HE rating (Ipomoea hederacea [20]): 3 (16-29%) | SET VI rating (Setaria viridis [21]): 3 (16-29%) | TRZ AW rating (Triticum aestivum [22]): 3 (16-29%) | VER PE rating (Veronica persica [23]): 0 | ZEA MX rating (Zea mays [24]): 2 (6-15%)

C[C@H](NC(=O)c1nc(-c2cccc(F)c2)ns1)c1ccccc1 [Example 45, (S)-3-(3-Fluorophenyl)-[1,2,4]thiadiazole-5-carboxylic acid, 1-(phenylethyl)amide]
TRZ AW rating (Triticum aestivum [1]): 0 | HOR VW rating (Hordeum vulgare [2]): 0 | ALO MY rating (Alopecurus myosuroides [3]): 3 (16-29%) | SET VI rating (Setaria viridis [4]): 0 | ABU TH rating (Abutilon theophrasti [5]): 0 | AMA RE rating (Amaranthus retroflexus [6]): 0 | CHE AL rating (Chenopodium album [7]): 0 | GAL AP rating (Galium aparine [8]): 0 | HEL AN rating (Helianthus annuus [9]): 0 | IPO HE rating (Ipomoea hederacea [10]): 0 | VER PE rating (Veronica persica [11]): 8 (91-99%) | ZEA MX rating (Zea mays [12]): 0 | ABU TH rating (Abutilon theophrasti [13]): 8 (91-99%) | ALO MY rating (Alopecurus myosuroides [14]): 4 (30-44%) | AMA RE rating (Amaranthus retroflexus [15]): 3 (16-29%) | CHE AL rating (Chenopodium album [16]): 4 (30-44%) | GAL AP rating (Galium aparine [17]): 6 (65-79%) | HEL AN rating (Helianthus annuus [18]): 8 (91-99%) | HOR VW rating (Hordeum vulgare [19]): 4 (30-44%) | IPO HE rating (Ipomoea hederacea [20]): 8 (91-99%) | SET VI rating (Setaria viridis [21]): 6 (65-79%) | TRZ AW rating (Triticum aestivum [22]): 3 (16-29%) | VER PE rating (Veronica persica [23]): 7 (80-90%) | ZEA MX rating (Zea mays [24]): 4 (30-44%)

C[C@H](NC(=O)c1nc(-c2cccc(Cl)n2)ns1)c1ccccc1 [Example 46, (S)-3-(6-Chloro-2-pyridyl)-[1,2,4]thiadiazole-5-carboxylic acid, 1-(phenylethyl)amide]
TRZ AW rating (Triticum aestivum [1]): 1 (1-5%) | HOR VW rating (Hordeum vulgare [2]): 0 | ALO MY rating (Alopecurus myosuroides [3]): 0 | SET VI rating (Setaria viridis [4]): 0 | ABU TH rating (Abutilon theophrasti [5]): 0 | AMA RE rating (Amaranthus retroflexus [6]): 5 (45-64%) | CHE AL rating (Chenopodium album [7]): 4 (30-44%) | GAL AP rating (Galium aparine [8]): 0 | HEL AN rating (Helianthus annuus [9]): 0 | IPO HE rating (Ipomoea hederacea [10]): 0 | VER PE rating (Veronica persica [11]): 5 (45-64%) | ZEA MX rating (Zea mays [12]): 0 | ABU TH rating (Abutilon theophrasti [13]): 8 (91-99%) | ALO MY rating (Alopecurus myosuroides [14]): 6 (65-79%) | AMA RE rating (Amaranthus retroflexus [15]): 3 (16-29%) | CHE AL rating (Chenopodium album [16]): 6 (65-79%) | GAL AP rating (Galium aparine [17]): 5 (45-64%) | HEL AN rating (Helianthus annuus [18]): 8 (91-99%) | HOR VW rating (Hordeum vulgare [19]): 6 (65-79%) | IPO HE rating (Ipomoea hederacea [20]): 8 (91-99%) | SET VI rating (Setaria viridis [21]): 8 (91-99%) | TRZ AW rating (Triticum aestivum [22]): 5 (45-64%) | VER PE rating (Veronica persica [23]): 8 (91-99%) | ZEA MX rating (Zea mays [24]): 5 (45-64%)
